Like-named read-outs stand apart in the source and are kept apart here.
Tested on: patients with locally advanced or metastatic solid tumors
Excerpt: This was a Phase Ib, multicenter, open-label, dose-finding clinical trial (NCT02610075). […] Three types of treatment schedules were investigated: cohorts bid 1, bid 2, qd 1.1, qd 2.1 and qd 3.1 received bid or qd treatment on a 5/9 schedule (5 days on treatment, followed by 9 days off) on a 14-day cycle. Cohorts qd 1.2, qd 2.2, and qd 3.2 received treatment on a 5/2 schedule (5 days on followed by 2 days off for 2 of 3 weeks) in a 21-day cycle. Cohorts qd 2.3 and qd 3.3 received treatment on a weekly 5/2 schedule in a 21-day cycle (Table 1). The highest dose level(s) at which less than one-third of evaluable patients (none of 3 patients or 1 of 6 patients) experienced a dose-limiting toxicity (DLT) was declared the MTD.
The per protocol analysis set was defined as a subset of the full analysis set, excluding subjects having an important protocol deviation, to be used for analyses of efficacy endpoints if appropriate.

[1] = qd 3.3: 300 mg 5/2 weekly (n=2)

Structure (SMILES): C=CCn1c(=O)c2cnc(Nc3ccc(N4CCN(C)CC4)cc3)nc2n1-c1cccc(C(C)(C)O)n1 [adavosertib, Adavosertib]
- Dehydration (treatment-emergent AE) (qd 3.1: 300 mg qd 5/9 (n=4)): 1 (25.0) n (%)
- Dehydration (treatment-related AE) (qd 3.1: 300 mg qd 5/9 (n=4)): 0 n (%)
- Diarrhea (treatment-emergent AE) (qd 3.1: 300 mg qd 5/9 (n=4)): 0 n (%)
- Diarrhea (treatment-related AE) (qd 3.1: 300 mg qd 5/9 (n=4)): 0 n (%)
- Dizziness (treatment-emergent AE) (qd 3.1: 300 mg qd 5/9 (n=4)): 2 (50.0) n (%)
- Dyspepsia (treatment-emergent AE) (qd 3.1: 300 mg qd 5/9 (n=4)): 0 n (%)
- Dyspepsia (treatment-related AE) (qd 3.1: 300 mg qd 5/9 (n=4)): 0 n (%)
- Dyspnea (treatment-emergent AE) (qd 3.1: 300 mg qd 5/9 (n=4)): 2 (50.0) n (%)
- Edema peripheral (treatment-emergent AE) (qd 3.1: 300 mg qd 5/9 (n=4)): 2 (50.0) n (%)
- Fall (treatment-emergent AE) (qd 3.1: 300 mg qd 5/9 (n=4)): 0 n (%)
- Fatigue (treatment-emergent AE) (qd 3.1: 300 mg qd 5/9 (n=4)): 2 (50.0) n (%)
- Fatigue (treatment-related AE) (qd 3.1: 300 mg qd 5/9 (n=4)): 1 (25.0) n (%)
- Headache (treatment-emergent AE) (qd 3.1: 300 mg qd 5/9 (n=4)): 0 n (%)
- Hypokalemia (treatment-emergent AE) (qd 3.1: 300 mg qd 5/9 (n=4)): 0 n (%)
- Insomnia (treatment-emergent AE) (qd 3.1: 300 mg qd 5/9 (n=4)): 1 (25.0) n (%)
- Muscle spasms (treatment-emergent AE) (qd 3.1: 300 mg qd 5/9 (n=4)): 1 (25.0) n (%)
- Myalgia (treatment-emergent AE) (qd 3.1: 300 mg qd 5/9 (n=4)): 1 (25.0) n (%)
- Myalgia (treatment-related AE) (qd 3.1: 300 mg qd 5/9 (n=4)): 1 (25.0) n (%)
- Nausea (treatment-emergent AE) (qd 3.1: 300 mg qd 5/9 (n=4)): 2 (50.0) n (%)
- Nausea (treatment-related AE) (qd 3.1: 300 mg qd 5/9 (n=4)): 2 (50.0) n (%)
- Neutropenia (treatment-emergent AE) (qd 3.1: 300 mg qd 5/9 (n=4)): 0 n (%)
- Neutropenia (treatment-related AE) (qd 3.1: 300 mg qd 5/9 (n=4)): 0 n (%)
- Pneumonia (treatment-emergent AE) (qd 3.1: 300 mg qd 5/9 (n=4)): 0 n (%)
- Pyrexia (treatment-emergent AE) (qd 3.1: 300 mg qd 5/9 (n=4)): 0 n (%)
- Rash (treatment-emergent AE) (qd 3.1: 300 mg qd 5/9 (n=4)): 0 n (%)
- Thrombocytopenia (treatment-emergent AE) (qd 3.1: 300 mg qd 5/9 (n=4)): 1 (25.0) n (%)
- Thrombocytopenia (treatment-related AE) (qd 3.1: 300 mg qd 5/9 (n=4)): 1 (25.0) n (%)
- Urinary tract infection (treatment-emergent AE) (qd 3.1: 300 mg qd 5/9 (n=4)): 0 n (%)
- Vomiting (treatment-emergent AE) (qd 3.1: 300 mg qd 5/9 (n=4)): 0 n (%)
- Vomiting (treatment-related AE) (qd 3.1: 300 mg qd 5/9 (n=4)): 0 n (%)
- Abdominal pain (treatment-emergent AE) (qd 3.2: 300 mg qd 5/2 (n=16)): 4 (25.0) n (%)
- Abdominal pain (treatment-related AE) (qd 3.2: 300 mg qd 5/2 (n=16)): 2 (12.5) n (%)
- Alanine aminotransferase increased (treatment-emergent AE) (qd 3.2: 300 mg qd 5/2 (n=16)): 0 n (%)
- Anemia (treatment-emergent AE) (qd 3.2: 300 mg qd 5/2 (n=16)): 8 (50.0) n (%)
- Anemia (treatment-related AE) (qd 3.2: 300 mg qd 5/2 (n=16)): 6 (37.5) n (%)
- Any AE (treatment-emergent) (qd 3.2: 300 mg qd 5/2 (n=16)): 16 (100.0) n (%)
- Any grade ≥ 3 AE (qd 3.2: 300 mg qd 5/2 (n=16)): 12 (75.0) n (%)
- Any treatment-related AE (qd 3.2: 300 mg qd 5/2 (n=16)): 16 (100.0) n (%)
- Any treatment-related grade ≥ 3 AE (qd 3.2: 300 mg qd 5/2 (n=16)): 8 (50.0) n (%)
- Asthenia (treatment-emergent AE) (qd 3.2: 300 mg qd 5/2 (n=16)): 4 (25.0) n (%)
- Asthenia (treatment-related AE) (qd 3.2: 300 mg qd 5/2 (n=16)): 2 (12.5) n (%)
- Back pain (treatment-emergent AE) (qd 3.2: 300 mg qd 5/2 (n=16)): 4 (25.0) n (%)
- Constipation (treatment-emergent AE) (qd 3.2: 300 mg qd 5/2 (n=16)): 4 (25.0) n (%)
- Constipation (treatment-related AE) (qd 3.2: 300 mg qd 5/2 (n=16)): 0 n (%)
- Cough (treatment-emergent AE) (qd 3.2: 300 mg qd 5/2 (n=16)): 2 (12.5) n (%)
- Decreased appetite (treatment-emergent AE) (qd 3.2: 300 mg qd 5/2 (n=16)): 5 (31.3) n (%)
- Decreased appetite (treatment-related AE) (qd 3.2: 300 mg qd 5/2 (n=16)): 4 (25.0) n (%)
- Dehydration (treatment-emergent AE) (qd 3.2: 300 mg qd 5/2 (n=16)): 7 (43.8) n (%)
- Dehydration (treatment-related AE) (qd 3.2: 300 mg qd 5/2 (n=16)): 1 (6.3) n (%)
- Diarrhea (treatment-emergent AE) (qd 3.2: 300 mg qd 5/2 (n=16)): 9 (56.3) n (%)
- Diarrhea (treatment-related AE) (qd 3.2: 300 mg qd 5/2 (n=16)): 9 (56.3) n (%)
- Dizziness (treatment-emergent AE) (qd 3.2: 300 mg qd 5/2 (n=16)): 4 (25.0) n (%)
- Dyspepsia (treatment-emergent AE) (qd 3.2: 300 mg qd 5/2 (n=16)): 2 (12.5) n (%)
- Dyspepsia (treatment-related AE) (qd 3.2: 300 mg qd 5/2 (n=16)): 2 (12.5) n (%)
- Dyspnea (treatment-emergent AE) (qd 3.2: 300 mg qd 5/2 (n=16)): 3 (18.8) n (%)
- Edema peripheral (treatment-emergent AE) (qd 3.2: 300 mg qd 5/2 (n=16)): 4 (25.0) n (%)
- Fall (treatment-emergent AE) (qd 3.2: 300 mg qd 5/2 (n=16)): 3 (18.8) n (%)
- Fatigue (treatment-emergent AE) (qd 3.2: 300 mg qd 5/2 (n=16)): 9 (56.3) n (%)
- Fatigue (treatment-related AE) (qd 3.2: 300 mg qd 5/2 (n=16)): 8 (50.0) n (%)
- Headache (treatment-emergent AE) (qd 3.2: 300 mg qd 5/2 (n=16)): 1 (6.3) n (%)
- Hypokalemia (treatment-emergent AE) (qd 3.2: 300 mg qd 5/2 (n=16)): 4 (25.0) n (%)
- Insomnia (treatment-emergent AE) (qd 3.2: 300 mg qd 5/2 (n=16)): 0 n (%)
- Muscle spasms (treatment-emergent AE) (qd 3.2: 300 mg qd 5/2 (n=16)): 1 (6.3) n (%)
- Myalgia (treatment-emergent AE) (qd 3.2: 300 mg qd 5/2 (n=16)): 3 (18.8) n (%)
- Myalgia (treatment-related AE) (qd 3.2: 300 mg qd 5/2 (n=16)): 1 (6.3) n (%)
- Nausea (treatment-emergent AE) (qd 3.2: 300 mg qd 5/2 (n=16)): 9 (56.3) n (%)
- Nausea (treatment-related AE) (qd 3.2: 300 mg qd 5/2 (n=16)): 7 (43.8) n (%)
- Neutropenia (treatment-emergent AE) (qd 3.2: 300 mg qd 5/2 (n=16)): 4 (25.0) n (%)
- Neutropenia (treatment-related AE) (qd 3.2: 300 mg qd 5/2 (n=16)): 4 (25.0) n (%)
- Pneumonia (treatment-emergent AE) (qd 3.2: 300 mg qd 5/2 (n=16)): 4 (25.0) n (%)
- Pyrexia (treatment-emergent AE) (qd 3.2: 300 mg qd 5/2 (n=16)): 3 (18.8) n (%)
- Rash (treatment-emergent AE) (qd 3.2: 300 mg qd 5/2 (n=16)): 2 (12.5) n (%)
- Thrombocytopenia (treatment-emergent AE) (qd 3.2: 300 mg qd 5/2 (n=16)): 3 (18.8) n (%)
- Thrombocytopenia (treatment-related AE) (qd 3.2: 300 mg qd 5/2 (n=16)): 3 (18.8) n (%)
- Urinary tract infection (treatment-emergent AE) (qd 3.2: 300 mg qd 5/2 (n=16)): 3 (18.8) n (%)
- Vomiting (treatment-emergent AE) (qd 3.2: 300 mg qd 5/2 (n=16)): 5 (31.3) n (%)
- Vomiting (treatment-related AE) (qd 3.2: 300 mg qd 5/2 (n=16)): 4 (25.0) n (%)
- Abdominal pain (treatment-emergent AE) [1]: 1 (50.0) n (%)
- Abdominal pain (treatment-related AE) [1]: 1 (50.0) n (%)
- Alanine aminotransferase increased (treatment-emergent AE) [1]: 0 n (%)
- Anemia (treatment-emergent AE) [1]: 0 n (%)
- Anemia (treatment-related AE) [1]: 0 n (%)
- Any AE (treatment-emergent) [1]: 2 (100.0) n (%)
- Any grade ≥ 3 AE [1]: 1 (50.0) n (%)
- Any treatment-related AE [1]: 2 (100.0) n (%)
- Any treatment-related grade ≥ 3 AE [1]: 1 (50.0) n (%)
- Asthenia (treatment-emergent AE) [1]: 0 n (%)
- Asthenia (treatment-related AE) [1]: 0 n (%)
- Back pain (treatment-emergent AE) [1]: 0 n (%)
- Constipation (treatment-emergent AE) [1]: 0 n (%)
- Constipation (treatment-related AE) [1]: 0 n (%)
- Cough (treatment-emergent AE) [1]: 0 n (%)
- Decreased appetite (treatment-emergent AE) [1]: 0 n (%)
- Decreased appetite (treatment-related AE) [1]: 0 n (%)
- Dehydration (treatment-emergent AE) [1]: 0 n (%)
- Dehydration (treatment-related AE) [1]: 0 n (%)
- Diarrhea (treatment-emergent AE) [1]: 2 (100.0) n (%)
- Diarrhea (treatment-related AE) [1]: 2 (100.0) n (%)
- Dizziness (treatment-emergent AE) [1]: 1 (50.0) n (%)
- Dyspepsia (treatment-emergent AE) [1]: 0 n (%)
- Dyspepsia (treatment-related AE) [1]: 0 n (%)
- Dyspnea (treatment-emergent AE) [1]: 0 n (%)
- Edema peripheral (treatment-emergent AE) [1]: 0 n (%)
- Fall (treatment-emergent AE) [1]: 0 n (%)
- Fatigue (treatment-emergent AE) [1]: 0 n (%)
- Fatigue (treatment-related AE) [1]: 0 n (%)
- Headache (treatment-emergent AE) [1]: 0 n (%)
- Hypokalemia (treatment-emergent AE) [1]: 1 (50.0) n (%)
- Insomnia (treatment-emergent AE) [1]: 0 n (%)
- Muscle spasms (treatment-emergent AE) [1]: 0 n (%)
- Myalgia (treatment-emergent AE) [1]: 1 (50.0) n (%)
- Myalgia (treatment-related AE) [1]: 0 n (%)
- Nausea (treatment-emergent AE) [1]: 2 (100.0) n (%)
- Nausea (treatment-related AE) [1]: 2 (100) n (%)
- Neutropenia (treatment-emergent AE) [1]: 1 (50.0) n (%)
- Neutropenia (treatment-related AE) [1]: 1 (50.0) n (%)

From paper PMC10289903 (Investigational New Drugs, 2023)
